Format in all cases: biochemical
Assay [1] concerns the target PDE1B (Homo sapiens (Human), UniProt Q01064). Description: PDE1 inhibition assay, PDE1B. Conditions: for pIC50: 15 nM tritium labelled cAMP. On the procedure:
(§1) Reactions were initiated by addition of the cyclic nucleotide substrate, and reactions were allowed to proceed for 1 h at room temperature before being terminated through mixing with 20 μL (0.2 mg) yttrium silicate SPA beads (PerkinElmer). The beads were allowed to settle for 1 h in the dark before the plates were counted in a Wallac 1450 Microbeta counter.

In assay [2] the target is PDE9 (Homo sapiens (Human), UniProt O76083). Description: PDE9 inhibition assay. Here is the method:
A PDE9 assay may for example, be performed as follows: The assay is performed in 60 μL samples containing a fixed amount of the relevant PDE enzyme (sufficient to convert 20-25% of the cyclic nucleotide substrate), a buffer (50 mM HEPES7.6; 10 mM MgCl2; 0.02% Tween20), 0.1 mg/ml BSA, 225 pCi of ^3H-labelled cyclic nucleotide substrate, tritium labeled cAMP to a final concentration of 5 nM and varying amounts of inhibitors. Reactions are initiated by addition of the cyclic nucleotide substrate, and reactions are allowed to proceed for one hr at room temperature before being terminated through mixing with 15 μL 8 mg/mL yttrium silicate SPA beads (Amersham). The beads are allowed to settle for one hr in the dark before the plates are counted in a Wallac 1450 Microbeta counter.
In the context of the present invention the assay was performed in 60 μL assay buffer (50 mM HEPES pH 7.6; 10 mM MgCl2; 0.02% Tween20) containing enough PDE9 to convert 20-25% of 10 nM ^3H-cAMP and varying amounts of inhibitors. Following a 1 hr incubation the reactions were terminated by addition of 15 μL 8 mg/mL yttrium silicate SPA beads (Amersham). The beads were allowed to settle for one hr in the dark before the plates were counted in a Wallac 1450 Microbeta counter.

For assay [3], the target named is PDE1A (Homo sapiens (Human), UniProt P54750). Description: PDE1 inhibition assay, PDE1A. The note with it: for pIC50: 15 nM tritium labelled cAMP. On the procedure: Reactions were initiated by addition of the cyclic nucleotide substrate, and reactions were allowed to proceed for 1 h at room temperature before being terminated through mixing with 20 μL (0.2 mg) yttrium silicate SPA beads (PerkinElmer).
Chain of PDE1A (P54750 whole entry): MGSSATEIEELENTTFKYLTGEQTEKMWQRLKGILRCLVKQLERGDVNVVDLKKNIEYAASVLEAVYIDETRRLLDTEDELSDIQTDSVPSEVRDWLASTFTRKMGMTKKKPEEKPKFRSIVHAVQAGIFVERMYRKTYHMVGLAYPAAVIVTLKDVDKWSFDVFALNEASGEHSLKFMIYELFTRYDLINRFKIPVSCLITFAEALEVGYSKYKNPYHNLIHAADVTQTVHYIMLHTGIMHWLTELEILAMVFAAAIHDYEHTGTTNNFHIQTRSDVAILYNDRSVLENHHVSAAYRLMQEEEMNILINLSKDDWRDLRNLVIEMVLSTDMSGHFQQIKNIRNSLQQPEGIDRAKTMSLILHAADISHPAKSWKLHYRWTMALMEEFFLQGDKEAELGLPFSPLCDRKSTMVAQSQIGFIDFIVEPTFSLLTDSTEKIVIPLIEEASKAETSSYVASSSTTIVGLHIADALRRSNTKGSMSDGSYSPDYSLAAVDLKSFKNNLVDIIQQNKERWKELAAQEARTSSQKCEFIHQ

Assay [4] addresses PDE1C (Homo sapiens (Human), UniProt Q14123). Description: PDE1 inhibition assay, PDE1C. The note with it: for pIC50: 15 nM tritium labelled cAMP. On the procedure: as §1

pIC50: −log10 of the molar value.

Chain of PDE9 (O76083 whole entry): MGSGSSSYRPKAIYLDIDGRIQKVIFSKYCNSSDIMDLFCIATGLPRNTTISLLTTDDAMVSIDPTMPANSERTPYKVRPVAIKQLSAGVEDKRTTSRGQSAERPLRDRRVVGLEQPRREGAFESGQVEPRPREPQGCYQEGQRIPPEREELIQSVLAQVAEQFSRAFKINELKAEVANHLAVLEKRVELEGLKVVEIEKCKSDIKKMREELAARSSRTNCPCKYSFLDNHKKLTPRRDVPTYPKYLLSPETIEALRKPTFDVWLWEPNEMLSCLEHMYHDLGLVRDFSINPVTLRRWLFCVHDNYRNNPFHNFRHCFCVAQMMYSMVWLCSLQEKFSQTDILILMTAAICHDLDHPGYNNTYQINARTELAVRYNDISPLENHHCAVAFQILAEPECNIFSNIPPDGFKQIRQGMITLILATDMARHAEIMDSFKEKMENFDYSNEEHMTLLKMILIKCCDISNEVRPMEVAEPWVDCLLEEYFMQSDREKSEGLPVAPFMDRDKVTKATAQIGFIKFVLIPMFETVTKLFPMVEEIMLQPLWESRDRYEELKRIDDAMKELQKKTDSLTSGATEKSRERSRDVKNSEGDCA
Chain of PDE1C (Q14123 whole entry): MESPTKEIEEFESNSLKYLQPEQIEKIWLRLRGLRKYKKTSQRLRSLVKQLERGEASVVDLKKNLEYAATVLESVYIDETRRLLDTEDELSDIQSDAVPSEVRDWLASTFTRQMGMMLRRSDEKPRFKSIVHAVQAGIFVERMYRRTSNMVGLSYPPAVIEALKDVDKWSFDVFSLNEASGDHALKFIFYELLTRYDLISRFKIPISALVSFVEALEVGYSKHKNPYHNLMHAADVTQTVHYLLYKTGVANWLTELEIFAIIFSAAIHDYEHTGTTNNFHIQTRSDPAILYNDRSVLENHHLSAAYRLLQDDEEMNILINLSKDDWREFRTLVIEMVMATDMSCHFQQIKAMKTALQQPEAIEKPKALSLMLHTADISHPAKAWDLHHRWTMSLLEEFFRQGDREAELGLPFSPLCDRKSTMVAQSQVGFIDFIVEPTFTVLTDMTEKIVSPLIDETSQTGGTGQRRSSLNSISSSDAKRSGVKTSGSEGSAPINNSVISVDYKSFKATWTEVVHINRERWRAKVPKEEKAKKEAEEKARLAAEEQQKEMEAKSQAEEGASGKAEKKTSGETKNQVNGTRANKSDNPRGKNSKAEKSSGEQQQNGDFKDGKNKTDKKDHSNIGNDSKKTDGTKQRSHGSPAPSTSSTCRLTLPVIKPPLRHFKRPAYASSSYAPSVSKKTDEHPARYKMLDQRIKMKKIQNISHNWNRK
Chain of PDE1B (Q01064 whole entry): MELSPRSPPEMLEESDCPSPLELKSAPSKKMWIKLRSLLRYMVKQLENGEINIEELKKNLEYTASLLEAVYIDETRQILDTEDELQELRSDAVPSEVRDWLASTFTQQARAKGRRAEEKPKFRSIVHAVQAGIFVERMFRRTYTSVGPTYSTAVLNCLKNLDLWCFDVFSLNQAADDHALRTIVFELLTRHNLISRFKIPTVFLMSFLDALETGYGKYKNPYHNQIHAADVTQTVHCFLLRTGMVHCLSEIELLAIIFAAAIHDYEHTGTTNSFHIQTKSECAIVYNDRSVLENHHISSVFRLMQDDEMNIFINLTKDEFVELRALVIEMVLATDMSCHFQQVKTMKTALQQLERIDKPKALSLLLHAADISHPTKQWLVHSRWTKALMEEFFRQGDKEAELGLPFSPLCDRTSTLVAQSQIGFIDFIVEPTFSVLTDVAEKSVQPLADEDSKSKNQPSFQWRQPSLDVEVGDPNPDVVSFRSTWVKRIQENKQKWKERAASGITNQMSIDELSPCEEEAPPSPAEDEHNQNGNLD

Regarding `Cc1cn2c([C@@H]3CCCCO3)ncc2c(=O)n1Cc1cccc(F)c1` (single isomer, unassigned; isomer 1) [30, isomer 1], the pIC50 was 6.21 in assay [1] and 6.65 in assay [4]. The “% inhibition of PDE9 at 10 microM” value in assay [2] is −11%. Also, the “PDE1A, % inhibition (at 1 μM)” value in assay [3] is reported as 20%.
Consider `Cc1cn2c([C@@H]3CCOC3)ncc2c(=O)n1Cc1cccc(F)c1` (single isomer, unassigned; isomer 1) [31, isomer 1], for which the pIC50 in assay [1] is 6.97; in assay [3], 6.47; in assay [4], 7.57. Besides, the “% inhibition of PDE9 at 10 microM” value in assay [2] is −1%.
The matching figures for `Cc1cn2c([C@]3(C)CCOC3)ncc2c(=O)n1Cc1cccc(F)c1` (single isomer, unassigned; isomer 1) [32, isomer 1]: 6.91, 6.59, 7.66 and −1%.
As to `Cc1cn2c([C@@H]3C[C@@H]3C)ncc2c(=O)n1Cc1cccc(F)c1` (single isomer, unassigned; isomer 1) [35, isomer 1], the pIC50 in assay [1] is 7.12; in assay [3], 6.71; in assay [4], 7.72. Besides, in assay [2], the “% inhibition of PDE9 at 10 microM” value was −11%.
Take `Cc1cn2c([C@@H]3CCO[C@@H]3C)ncc2c(=O)n1Cc1cccc(F)c1` (single isomer, unassigned; isomer 1) [36, isomer 1]: the pIC50 in assay [1] was 7.23; in assay [3], 6.82. The “% inhibition of PDE9 at 10 microM” value in assay [2] was determined as 3%.
Consider `Cc1cn2c(C3C[C@@H]3F)ncc2c(=O)n1Cc1cccc(F)c1` (single isomer, unassigned; isomer 1) [37, isomer 1], for which the “% inhibition of PDE9 at 10 microM” value in assay [2] is reported as −2%. In assay [4], this compound showed a pIC50 of 6.46.
`Cc1cn2c(C3C[C@H]3F)ncc2c(=O)n1Cc1cccc(F)c1` (single isomer, unassigned; isomer 1) [38, isomer 1]: in assay [2], the “% inhibition of PDE9 at 10 microM” value was −1%.
As to `COc1ccc(Cn2c(C)cn3c([C@@H]4CCO[C@@H]4C)ncc3c2=O)cc1` (single isomer, unassigned; isomer 1) [55, isomer 1], the pIC50 in assay [1] was 8.00. In addition, in assay [2], the “% inhibition of PDE9 at 10 microM” value was 18%.
`Cc1cn2c(N3CCC4OCCC43)ncc2c(=O)n1Cc1cccc(F)c1` (single isomer, unassigned; isomer 1) [99, isomer 1]: the figures for the pIC50 in assay [1], in assay [3] and in assay [4] were 6.87, 6.62 and 7.57, respectively. Also, the “% inhibition of PDE9 at 10 microM” value in assay [2] came to 9%.
For `Cc1cn2c([C@@H]3CCCOC3)ncc2c(=O)n1Cc1cccc(F)c1` (single isomer, unassigned; isomer 1) [100, isomer 1] the same measures were 6.65, 6.51, 7.37 and 11%.
`Cc1cn2c([C@H]3CCCCO3)ncc2c(=O)n1Cc1cccc(F)c1` (single isomer, unassigned; isomer 2) [30, isomer 2]: in assay [1] (at 1 μM), the “PDE1B, % inhibition (at 1 μM)” value is listed as 40%. For the same compound, in assay [2], the “% inhibition of PDE9 at 10 microM” value was 28%. For the same compound, the “PDE1A, % inhibition (at 1 μM)” value in assay [3] stood at 27%. The same compound had a negative logarithm of the IC50 (pIC50) in assay [4] of 6.67.
In the case of `Cc1cn2c([C@H]3CCOC3)ncc2c(=O)n1Cc1cccc(F)c1` (single isomer, unassigned; isomer 2) [31, isomer 2], the pIC50 is 6.86 in assay [1], 6.46 in assay [3] and 7.51 in assay [4]. The “% inhibition of PDE9 at 10 microM” value in assay [2] was determined as 5%.
The matching figures for `Cc1cn2c(C3(C)CCOC3)ncc2c(=O)n1Cc1cccc(F)c1` (single isomer, unassigned; isomer 2) [32, isomer 2]: 6.77, 6.40, 7.40 and 16%.
The matching figures for `Cc1cn2c([C@@H]3C[C@H]3C)ncc2c(=O)n1Cc1cccc(F)c1` (single isomer, unassigned; isomer 2) [35, isomer 2]: 6.78, 6.44, 7.39 and 15%.
On to `Cc1cn2c([C@H]3CCO[C@@H]3C)ncc2c(=O)n1Cc1cccc(F)c1` (single isomer, unassigned; isomer 2) [36, isomer 2], for which the pIC50 in assay [1] was 6.97; in assay [3], 6.55. Further, the “% inhibition of PDE9 at 10 microM” value in assay [2] is 11%.
For `Cc1cn2c(C3C[C@@H]3F)ncc2c(=O)n1Cc1cccc(F)c1` (single isomer, unassigned; isomer 2) [37, isomer 2], in assay [2], the “% inhibition of PDE9 at 10 microM” value amounted to 13%. For the same compound, the pIC50 in assay [4] is 7.26.
The matching figures for `Cc1cn2c(C3C[C@H]3F)ncc2c(=O)n1Cc1cccc(F)c1` (single isomer, unassigned; isomer 2) [38, isomer 2]: 2% and 6.82.
With `COc1ccc(Cn2c(C)cn3c([C@@H]4CCO[C@H]4C)ncc3c2=O)cc1` (single isomer, unassigned; isomer 2) [55, isomer 2], in assay [1], the pIC50 was 7.19. In assay [2], the “% inhibition of PDE9 at 10 microM” value is −13%.
On to `Cc1cn2c(N3CCC4OCCC43)ncc2c(=O)n1Cc1cccc(F)c1` (single isomer, unassigned; isomer 2) [99, isomer 2], for which the pIC50 in assay [1] was 6.12; in assay [4], 6.92. Also, in assay [2], the “% inhibition of PDE9 at 10 microM” value was 6%. The “PDE1A, % inhibition (at 10 μM)” value in assay [3] (at 10 μM) worked out at 47%.
For `Cc1cn2c([C@H]3CCCOC3)ncc2c(=O)n1Cc1cccc(F)c1` (single isomer, unassigned; isomer 2) [100, isomer 2], the negative-log IC50 (pIC50) is 7.03 in assay [1], 6.48 in assay [3] and 7.48 in assay [4]. The “% inhibition of PDE9 at 10 microM” value in assay [2] is −21%.
Consider `Cc1cn2c([C@@H]3CCO[C@H]3C)ncc2c(=O)n1Cc1cccc(F)c1` (single isomer, unassigned; isomer 3) [36, isomer 3], for which the pIC50 in assay [1] was 7.68; in assay [3] it was 7.11. The “% inhibition of PDE9 at 10 microM” value in assay [2] is −10%.
In assay [1], `COc1ccc(Cn2c(C)cn3c([C@@H]4CCO[C@H]4C)ncc3c2=O)cc1` (single isomer, unassigned; isomer 3) [55, isomer 3] gave a pIC50 of 8.52.
The compound `COc1ccc(Cn2c(C)cn3c([C@H]4CCO[C@H]4C)ncc3c2=O)cc1` (single isomer, unassigned; isomer 4) [55, isomer 4] showed a pIC50 in assay [1] of 6.68. The “% inhibition of PDE9 at 10 microM” value in assay [2] is 1%.
Take `COc1cc(Cn2c(C)cn3c(C4CCOCC4)ncc3c2=O)ccc1Cl` [Example 48, 7-(4-chloro-3-methoxybenzyl)-6-methyl-3-(tetrahydro-2H-pyran-4-yl)imidazo[1,5-a]pyrazin-8(7H)-one]: the inhibition at 1 µM in assay [1] (read-out: PDE1B, % inhibition (at 1 μM)) amounted to 54%; in assay [4] (read-out: PDE1C, % inhibition (at 1 μM)), 34%. In assay [2], the inhibition at 10 µM was 10%.
Turning to `COc1ccc(Cn2c(C)cn3c(C4(C)CCN(C)CC4)ncc3c2=O)cc1` [Example 73, 3-(1,4-dimethylpiperidin-4-yl)-7-(4-methoxybenzyl)-6-methylimidazo[1,5-a]pyrazin-8(7H)-one], the negative logarithm of the IC50 (pIC50) in assay [1] is 5.84; in assay [3], 5.72; in assay [4] it was 5.61.
The matching figures for `COc1ccc(Cn2c(C)cn3c(C(C)C)ncc3c2=O)cc1` [Example 77, 3-isopropyl-7-(4-methoxybenzyl)-6-methylimidazo[1,5-a]pyrazin-8(7H)-one]: 8.15, 7.89 and 7.70.
As for `COc1ccc(Cn2c(C)cn3c(C(C)(C)F)ncc3c2=O)cc1` [Example 87, 3-(2-fluoropropan-2-yl)-7-(4-methoxybenzyl)-6-methylimidazo[1,5-a]pyrazin-8(7H)-one], the inhibition at 10 µM in assay [2] was 10%.
As for `COc1ccc(Cn2c(C)cn3c(NC4CCOC4)ncc3c2=O)cc1` (centres unmarked) [Example 94, 7-(4-methoxybenzyl)-6-methyl-3-((tetrahydrofuran-3-yl)amino)imidazo[1,5-a]pyrazin-8(7H)-one], the inhibition at 10 µM in assay [2] is -5%. In assay [3], this compound showed a negative-log IC50 (pIC50) of 5.60.
In the case of `COc1ccc(Cn2c(C)cn3c(N4CCOC[C@@H]4C)ncc3c2=O)cc1` [Example 96, (S)-7-(4-methoxybenzyl)-6-methyl-3-(3-methylmorpholino)imidazo[1,5-a]pyrazin-8(7H)-one], the negative logarithm of the IC50 (pIC50) was 7.42 in assay [1], 7.32 in assay [3] and 7.29 in assay [4].

The record behind these values is patent US10858362B2, “Imidazopyrazinones as PDE1 inhibitors” (H. Lundbeck A/S, priority 2015, dated 2020).
